The values that follow come from PubChem BioAssay (NCI).

Among the test systems are A549 NSCLC; RPMI-8226 leukemia; HOP-62 NSCLC; ACHN renal; SF-295 CNS; T-47D breast; PC-3 prostate; HOP-92 NSCLC; MCF7 breast; OVCAR-4 ovarian.
Common to all, as to assay: inhibition of tumour cell growth, NCI panel, 48 h

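1) Cells in 96-well plates. 2) Compound, 48 h, 5 concentrations. 3) Linear interpolation between surrounding doses. 4) Unreached endpoint = highest concentration. GI50: concentration for 50% inhibition of growth. TGI is the concentration that stops growth completely.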

For `O=C(c1cccs1)c1c(C(F)(F)F)n([O-])c2ccc(F)cc2[n+]1=O`, the GI50 was 2.32 µM in the assay with A549 NSCLC; 0.188 µM in the assay on RPMI-8226 leukemia; 1.58 µM in the assay on HOP-62 NSCLC; 1.5 µM in the assay with ACHN renal; 1.76 µM in the assay on SF-295 CNS; 0.69 µM with T-47D breast. In addition, the GI50 with PC-3 prostate was 0.961 µM; in the assay with HOP-92 NSCLC it was 0.914 µM; in the assay with MCF7 breast it was 0.454 µM; in the assay on OVCAR-4 ovarian it was 1.41 µM. Besides, the TGI in the assay with A549 NSCLC is 7.02 µM; in the assay with RPMI-8226 leukemia it was 0.485 µM; in the assay on HOP-62 NSCLC, 3.13 µM; in the assay on ACHN renal, 2.82 µM; in the assay with SF-295 CNS, 3.58 µM; with T-47D breast it was 3.23 µM. Also, the TGI with PC-3 prostate is 2.33 µM; in the assay with HOP-92 NSCLC, 2.48 µM; in the assay on MCF7 breast, 3.12 µM; with OVCAR-4 ovarian it was 2.75 µM.

As to `COC(=O)Nc1nc2cc3c(cc2s1)OCCO3`, the GI50 in the assay on A549 NSCLC, with RPMI-8226 leukemia, in the assay on HOP-62 NSCLC, with ACHN renal, in the assay on SF-295 CNS and in the assay with T-47D breast was more than 50 µM each time. Further, the GI50 in the assay with PC-3 prostate, in the assay on HOP-92 NSCLC, with MCF7 breast and with OVCAR-4 ovarian was more than 50 µM in each case. The TGI in the assay on A549 NSCLC, in the assay on RPMI-8226 leukemia, in the assay with HOP-62 NSCLC, with ACHN renal, in the assay on SF-295 CNS and in the assay with T-47D breast was more than 50 µM throughout. Also, the TGI with PC-3 prostate, in the assay on HOP-92 NSCLC, in the assay on MCF7 breast and with OVCAR-4 ovarian was more than 50 µM in each case.

As to `CCC1CC(=O)N(SCC(N)C(=O)O)C1=O` (stereo not given), the TGI in the assay on A549 NSCLC, in the assay on RPMI-8226 leukemia, in the assay with HOP-62 NSCLC, with ACHN renal, in the assay with SF-295 CNS and in the assay with T-47D breast was more than 100 µM throughout. In addition, the TGI in the assay on PC-3 prostate, with HOP-92 NSCLC, with MCF7 breast and with OVCAR-4 ovarian was more than 100 µM each time.

Take `CC1OC(OC2CC(O)C3(CO)C4C(O)CC5(C)C(C6=CC(=O)OC6)CCC5(O)C4CCC3(O)C2)C(O)C(O)C1O` (stereo not given): the GI50 with A549 NSCLC is less than 0.0109 µM; with RPMI-8226 leukemia, 0.0167 µM; in the assay with HOP-62 NSCLC, less than 0.0112 µM; in the assay on ACHN renal, 0.01 µM; with SF-295 CNS, less than 0.0138 µM; with T-47D breast it was less than 0.0121 µM. The GI50 was less than 0.0144 µM with PC-3 prostate, 0.0216 µM with HOP-92 NSCLC, less than 0.0163 µM in the assay on MCF7 breast and less than 0.0124 µM with OVCAR-4 ovarian. The TGI in the assay on A549 NSCLC is less than 0.0138 µM; in the assay with RPMI-8226 leukemia, 0.206 µM; in the assay with HOP-62 NSCLC it was less than 0.0146 µM; with ACHN renal, 0.0191 µM; in the assay with SF-295 CNS it was 0.0291 µM; in the assay with T-47D breast it was 0.0342 µM. The TGI was 0.0437 µM with PC-3 prostate, 0.0791 µM in the assay with HOP-92 NSCLC, 0.29 µM with MCF7 breast and 0.0176 µM in the assay with OVCAR-4 ovarian.

As to `CC(=O)OC1CCC2(C)C(=CCC3C2CCC2(C)C(C(C)C(=O)O)CCC32)C1` (stereo not given), the TGI in the assay on A549 NSCLC, in the assay with RPMI-8226 leukemia, in the assay on HOP-62 NSCLC, in the assay on ACHN renal, with SF-295 CNS and with T-47D breast was more than 100 µM throughout. Besides, the TGI in the assay on PC-3 prostate, with HOP-92 NSCLC, with MCF7 breast and in the assay with OVCAR-4 ovarian was more than 100 µM in each case.

With `COC(=O)[C@H](CC(C)C)NC(=O)NC(=O)NC(=O)CI`, the GI50 in the assay on A549 NSCLC is 20.3 µM; with RPMI-8226 leukemia, 2.92 µM; with HOP-62 NSCLC, 18.2 µM; with ACHN renal it was 1.78 µM; in the assay with SF-295 CNS, 14.7 µM; in the assay with T-47D breast it was 2.28 µM. Moreover, the GI50 is 11.8 µM in the assay with PC-3 prostate, 2.14 µM with HOP-92 NSCLC, 1.8 µM in the assay on MCF7 breast and 1.88 µM with OVCAR-4 ovarian. Besides, the TGI was found to be 39.6 µM in the assay with A549 NSCLC; 7.75 µM in the assay on RPMI-8226 leukemia; 34.2 µM in the assay with HOP-62 NSCLC; 3.38 µM in the assay on ACHN renal; 28.7 µM with SF-295 CNS; 7.03 µM in the assay with T-47D breast. Moreover, the TGI worked out at 25.7 µM in the assay on PC-3 prostate, 4.98 µM with HOP-92 NSCLC, 4.33 µM with MCF7 breast and 4.26 µM in the assay on OVCAR-4 ovarian.

`CC1=C([Se]CC(OC(=O)[C@@H](CO)NC(=O)OC(C)(C)C)C(=O)NC(C)(C)C)C(=O)c2ccccc2C1=O` (stereo not given in full): the GI50 in the assay on A549 NSCLC was 1.81 µM; in the assay on RPMI-8226 leukemia, 2.74 µM; with HOP-62 NSCLC, 0.53 µM; in the assay on ACHN renal, 1.57 µM; in the assay with SF-295 CNS, 0.316 µM; in the assay on T-47D breast, 0.332 µM. Further, the GI50 with PC-3 prostate was 1.35 µM; in the assay with HOP-92 NSCLC, 1.88 µM; with MCF7 breast, 1.75 µM; in the assay with OVCAR-4 ovarian, 1.23 µM. The TGI with A549 NSCLC came to 9.44 µM; with RPMI-8226 leukemia it was 8.91 µM; in the assay with HOP-62 NSCLC, 1.86 µM; with ACHN renal, 3.02 µM; in the assay with SF-295 CNS, 1.06 µM; in the assay on T-47D breast it was 1.06 µM. Further, the TGI is 2.85 µM in the assay on PC-3 prostate, 3.43 µM with HOP-92 NSCLC, 3.97 µM in the assay on MCF7 breast and 2.49 µM in the assay with OVCAR-4 ovarian.

As to `O=c1[nH]c(SCc2c(Cl)c(Cl)c(Cl)c(Cl)c2Cl)nc(=S)[nH]1`, the TGI in the assay on A549 NSCLC was more than 100 µM; with RPMI-8226 leukemia, 23.3 µM; with HOP-62 NSCLC, more than 100 µM; in the assay with ACHN renal it was more than 100 µM; in the assay with SF-295 CNS it was more than 100 µM; in the assay on T-47D breast, more than 82.9 µM. The TGI in the assay with PC-3 prostate was more than 100 µM; with HOP-92 NSCLC, more than 100 µM; in the assay with MCF7 breast, more than 100 µM; in the assay on OVCAR-4 ovarian, 54.8 µM.

For `CC1(C)CC2C=C(C=O)C3(C=O)CC3(C)C2C1` (stereo not given), the TGI in the assay on A549 NSCLC was found to be 27.2 µM; in the assay on RPMI-8226 leukemia, 3.95 µM; in the assay with HOP-62 NSCLC, 8.86 µM; with ACHN renal, 2.83 µM; with SF-295 CNS, 18.8 µM; with T-47D breast, 9.02 µM. In addition, the TGI in the assay on PC-3 prostate was found to be 4.33 µM; in the assay with HOP-92 NSCLC it was 3.97 µM; in the assay with MCF7 breast, 5.27 µM; with OVCAR-4 ovarian, 3.22 µM.
